Measurements: patent publication US11845770B2, “Ascaroside derivatives and methods of use” (California Institute of Technology, priority 2019, dated 2023)

Key:
[1] = tested on: THP1 human macrophage cells; experiment: Stimulation of THP-1 cells, IL-6 at 6 or 36 hours post stimulation; format: cell-based; settings: THP1-derived macrophages, IFNγ + LPS, 0.1 to 500 μM, FIG. 9
Experimental: Human immortalized monocytic THP-1 cells were maintained in phenol red free RPMI 1640 medium containing 10% (v/v) fetal bovine serum (FBS), 2 mM L-glutamine, penicillin (100 units/mL), streptomycin (100 μg/mL), amphotericin B (2.5 μg/mL), and 50 μM beta-mercaptoethanol (BME) at 37° C. with 5% (v/v) CO2. THP-1 cells were seeded in 1 mL of THP-1 medium (cell culture medium containing 10% (v/v) FBS, 2 mM L-glutamine, penicillin (100 units/mL), streptomycin (100 μg/mL), amphotericin B ([…]), and 50 μM BME)/well at a density of 1×10^6 cells/mL in six-well plates. Cells were differentiated by adding 10, 50, or 100 nM phorbol 12-myristate 13-acetate (PMA) to each well before incubating cells for 5.5 h at 37° C. with 5% (v/v) CO2. Without removing the media, different concentrations (either 0, 0.1, 1.0, 10, 100, 200, or 500 μM) of the compound were added to each well. Cells were stimulated, within 30 min by adding 20 ng/mL interferon gamma (IFNγ) and 100 ng/mL lipopolysaccharide (LPS) to each well. Following stimulation, the THP-1 cells were incubated for 6 or 36 hours at 37° C. with 5% (v/v) CO2. Supernatant was collected and stored at −80° C. until use.
IL-6 released from supernatants collected at 6 or 36 hours post stimulation with IFNγ and LPS were measured using the AlphaLISA Human IL-6 detection kit.

[2] = Stability in hepatocytes (mouse); format: in vitro ADME; settings: cryopreserved mouse hepatocytes (suspension)
Experimental: 10 mM of 1 was provided as a 1000× stock solution in dimethylsulfoxide (DMSO), and the stock solution was diluted to 1 mM with DMSO in 96-well plates. 30 mM of positive compounds (7-ethoxycoumarin and 7-hydroxycoumarin) were provided as a 1000× stock solution in DMSO, and the stock solution was diluted to 3 mM with DMSO in 96-well plates. 20 μL of 1000× stock solution of each compound were pipetted and was mixed with 380 μL of 45% MeOH/H2O to obtain 50 μM of 1 and 150 μM of the positive control compound solutions to form 50× intermediate solutions. 20 μL of 50× intermediate solution of each compound were pipetted and was mixed with […] of pre-warmed incubation medium to obtain 5 μM of 1 and 15 μM of the positive control compound solutions to form 5× working solutions. The incubation medium was Williams' Medium E (no phenol red) containing 2 mM L-glutamine and 25 mM HEPES. 10 μL of 5× working solutions of each compound were pipetted into appropriate wells in a 96-well plate for time points of 0 minutes, 15 minutes, 30 minutes, 60 minutes, and 90 minutes in duplicates. The plates with compounds were kept warm in an incubator at 37° C.
A cell suspension was prepared by thawing cryopreserved cells, isolating the cells, and suspending the cells in thawing medium. […]
The remaining percentage of 1 after incubation was calculated according to the following equation. […]

[3] = Stability in plasma (mouse); format: in vitro ADME; settings: after 120 minutes, 37° C.
Experimental: The pH of plasma was adjusted to 7.4±0.1 if required. 1 mM intermediate solution was prepared by diluting 10 μL of the 10 mM stock solution of 1 with 90 μL DMSO; 1 mM intermediate of positive control propantheline bromide was prepared by diluting 10 μL of the stock solution with 90 μL ultra-pure water. 100 μM dosing solution was prepared by diluting 10 μL of the 1 mM intermediate solution with 90 μL of 45% MeOH/H2O. 98 μL of blank plasma was spiked with 2 μL of the 100 μM dosing solution to achieve a final concentration of 2 μM of the compound in duplicate. Samples were incubated at 37° C. in a water bath. At each time point (0, 10, 30, 60 and 120 min), 400 μL of stop solution (200 ng/mL tolbutamide plus 200 ng/mL labetalol in 50% ACN/MeOH) was added and was mixed thoroughly to precipitate protein. Sample plates were centrifuged at 4,000 rpm for 10 min. An aliquot of supernatant (100 μL) was transferred from each well and was mixed with 200 μL ultra-pure water. The samples were shaken at 800 rpm for about 10 min before LC/MS/MS analysis.
The remaining percentage of compound 1 (test article) after incubation was calculated according to the following equation.

half-life at 1 µM [2] [min]	remaining percentage after incubation [3] [%]	Compound	percent inhibition relative to Control of IL-6 levels secreted [1]
		C[C@H](CC/C=C/C(=O)OC(C)(C)C)O[C@@H]1O[C@@H](C)[C@H](O)C[C@H]1O [Compound 1, tert-butyl (2E,6R)-6-{[(2R,3R,5R,6S)-3,5-dihydroxy-6-methyloxan-2-yl]oxy}hept-2-enoate]	inhibited IL-6 expression in statistically significant, dose-dependent manner
> 217	103.4	C[C@H](CC/C=C/C(=O)O)O[C@@H]1O[C@@H](C)[C@H](O)C[C@H]1O [ascr #7, reference compound]	
